From PubChem BioAssay AID1259407 (Chemical Carcinogenesis Research Information System (CCRIS), 2018)
Activity calls are given as the source filed them. How the calls were made is not given here.

System: CCRIS mutagenicity, Ames/micronucleus/aberration tests
Assay: CCRIS mutagenicity studies
[1] = Test System: AMES SALMONELLA TYPHIMURIUM, Strain/Indicator: TA97, Metabolic Activation: NONE, Method: STANDARD PLATE
[2] = Test System: AMES SALMONELLA TYPHIMURIUM, Strain/Indicator: TA98, Metabolic Activation: NONE, Method: STANDARD PLATE
[3] = Test System: AMES SALMONELLA TYPHIMURIUM, Strain/Indicator: TA100, Metabolic Activation: NONE, Method: STANDARD PLATE

SMILES: CC(=O)c1c(C)c([N+](=O)[O-])c(C(C)(C)C)c([N+](=O)[O-])c1C
- mutagenic call (Test System: AMES SALMONELLA TYPHIMURIUM, Strain/Indicator: TA97, Metabolic Activation: HAMSTER, LIVER, S-9, AROCLOR 1254 (10 OR 30%), Method: PREINCUBATION): inactive; negative
- mutagenic call (Test System: AMES SALMONELLA TYPHIMURIUM, Strain/Indicator: TA97, Metabolic Activation: NONE, Method: PREINCUBATION): inactive; negative
- mutagenic call (Test System: AMES SALMONELLA TYPHIMURIUM, Strain/Indicator: TA97, Metabolic Activation: RAT, LIVER, S-9, AROCLOR 1254 (10 OR 30%), Method: PREINCUBATION): inactive; negative
- mutagenic call (Test System: AMES SALMONELLA TYPHIMURIUM, Strain/Indicator: TA98, Metabolic Activation: HAMSTER, LIVER, S-9, AROCLOR 1254 (10 OR 30%), Method: PREINCUBATION): inactive; negative
- mutagenic call (Test System: AMES SALMONELLA TYPHIMURIUM, Strain/Indicator: TA98, Metabolic Activation: NONE, Method: PREINCUBATION): inactive; negative
- mutagenic call (Test System: AMES SALMONELLA TYPHIMURIUM, Strain/Indicator: TA98, Metabolic Activation: RAT, LIVER, S-9, AROCLOR 1254 (10 OR 30%), Method: PREINCUBATION): inactive; negative
- mutagenic call (Test System: AMES SALMONELLA TYPHIMURIUM, Strain/Indicator: TA98, Metabolic Activation: RAT, LIVER, S-9, AROCLOR 1254, Method: PREINCUBATION): inactive; negative
- mutagenic call (Test System: AMES SALMONELLA TYPHIMURIUM, Strain/Indicator: TA98, Metabolic Activation: RAT, LIVER, S-9, AROCLOR 1254, Method: STANDARD PLATE): inactive; negative
- mutagenic call (Test System: AMES SALMONELLA TYPHIMURIUM, Strain/Indicator: TA100, Metabolic Activation: HAMSTER, LIVER, S-9, AROCLOR 1254 (10 OR 30%), Method: PREINCUBATION): inactive; negative
- mutagenic call (Test System: AMES SALMONELLA TYPHIMURIUM, Strain/Indicator: TA100, Metabolic Activation: NONE, Method: PREINCUBATION): inactive; negative
- mutagenic call (Test System: AMES SALMONELLA TYPHIMURIUM, Strain/Indicator: TA100, Metabolic Activation: RAT, LIVER, S-9, AROCLOR 1254 (10 OR 30%), Method: PREINCUBATION): inactive; negative
- mutagenic call (Test System: AMES SALMONELLA TYPHIMURIUM, Strain/Indicator: TA100, Metabolic Activation: RAT, LIVER, S-9, AROCLOR 1254, Method: PREINCUBATION): inactive; negative
- mutagenic call (Test System: AMES SALMONELLA TYPHIMURIUM, Strain/Indicator: TA100, Metabolic Activation: RAT, LIVER, S-9, AROCLOR 1254, Method: STANDARD PLATE): inactive; negative
- mutagenic call (Test System: AMES SALMONELLA TYPHIMURIUM, Strain/Indicator: TA1535, Metabolic Activation: HAMSTER, LIVER, S-9, AROCLOR 1254 (10 OR 30%), Method: PREINCUBATION): inactive; negative
- mutagenic call (Test System: AMES SALMONELLA TYPHIMURIUM, Strain/Indicator: TA1535, Metabolic Activation: NONE, Method: PREINCUBATION): inactive; negative
- mutagenic call (Test System: AMES SALMONELLA TYPHIMURIUM, Strain/Indicator: TA1535, Metabolic Activation: RAT, LIVER, S-9, AROCLOR 1254 (10 OR 30%), Method: PREINCUBATION): inactive; negative
- mutagenic call (Test System: MOUSE LYMPHOMA, Strain/Indicator: L5178Y (TK+/TK-), Metabolic Activation: NONE, Method: SUSPENSION/PLATE): inactive; negative
- mutagenic call (Test System: MOUSE LYMPHOMA, Strain/Indicator: L5178Y (TK+/TK-), Metabolic Activation: RAT, LIVER, S-9, AROCLOR 1242 AND AROCLOR 1254 (2:1), Method: SUSPENSION/PLATE): inactive; negative
- mutagenic call (Test System: UDS RAT PRIMARY HEPATOCYTES, Strain/Indicator: THY INCORP, Metabolic Activation: NONE): inactive; negative

SMILES: CCNc1nc(NC(C)C)[nH]c(=O)n1
- mutagenic call [1]: inactive; negative
- mutagenic call [2]: inactive; negative
- mutagenic call [3]: inactive; negative

SMILES: CN(C)N=Nc1ccc(Cl)cc1
- mutagenic call (Test System: AMES SALMONELLA TYPHIMURIUM, Strain/Indicator: G46, Metabolic Activation: RAT, LIVER, S-9, PHENOBARBITAL, Method: STANDARD PLATE): active; positive
- mutagenic call (Test System: AMES SALMONELLA TYPHIMURIUM, Strain/Indicator: TA92, Metabolic Activation: MOUSE, LIVER, S-9, POLYCHLORINATED BIPHENYLS, Method: PREINCUBATION): inactive; negative
- mutagenic call (Test System: AMES SALMONELLA TYPHIMURIUM, Strain/Indicator: TA92, Metabolic Activation: MOUSE, LIVER, S-9, POLYCHLORINATED BIPHENYLS, Method: STANDARD PLATE): inactive; negative
- mutagenic call (Test System: AMES SALMONELLA TYPHIMURIUM, Strain/Indicator: TA92, Metabolic Activation: NONE, Method: STANDARD PLATE): inactive; negative
- mutagenic call (Test System: AMES SALMONELLA TYPHIMURIUM, Strain/Indicator: TA97, Metabolic Activation: MOUSE, LIVER, S-9, POLYCHLORINATED BIPHENYLS, Method: PREINCUBATION): active; positive
- mutagenic call (Test System: AMES SALMONELLA TYPHIMURIUM, Strain/Indicator: TA97, Metabolic Activation: MOUSE, LIVER, S-9, POLYCHLORINATED BIPHENYLS, Method: STANDARD PLATE): active; positive
- mutagenic call [1]: inactive; negative
- mutagenic call (Test System: AMES SALMONELLA TYPHIMURIUM, Strain/Indicator: TA98, Metabolic Activation: MOUSE, LIVER, S-9, POLYCHLORINATED BIPHENYLS, Method: PREINCUBATION): active; positive
- mutagenic call (Test System: AMES SALMONELLA TYPHIMURIUM, Strain/Indicator: TA98, Metabolic Activation: MOUSE, LIVER, S-9, POLYCHLORINATED BIPHENYLS, Method: STANDARD PLATE): active; positive
- mutagenic call [2]: active; positive
- mutagenic call (Test System: AMES SALMONELLA TYPHIMURIUM, Strain/Indicator: TA100, Metabolic Activation: MOUSE, LIVER, S-9, POLYCHLORINATED BIPHENYLS, Method: PREINCUBATION): active; positive
- mutagenic call (Test System: AMES SALMONELLA TYPHIMURIUM, Strain/Indicator: TA100, Metabolic Activation: MOUSE, LIVER, S-9, POLYCHLORINATED BIPHENYLS, Method: STANDARD PLATE): inactive; negative
- mutagenic call [3]: inactive; negative
- mutagenic call (Test System: AMES SALMONELLA TYPHIMURIUM, Strain/Indicator: TA1535, Metabolic Activation: MOUSE, LIVER, S-9, POLYCHLORINATED BIPHENYLS, Method: PREINCUBATION): active; positive
- mutagenic call (Test System: AMES SALMONELLA TYPHIMURIUM, Strain/Indicator: TA1535, Metabolic Activation: MOUSE, LIVER, S-9, POLYCHLORINATED BIPHENYLS, Method: STANDARD PLATE): inactive; negative
- mutagenic call (Test System: AMES SALMONELLA TYPHIMURIUM, Strain/Indicator: TA1535, Metabolic Activation: NONE, Method: STANDARD PLATE): inactive; negative
- mutagenic call (Test System: AMES SALMONELLA TYPHIMURIUM, Strain/Indicator: TA1537, Metabolic Activation: MOUSE, LIVER, S-9, POLYCHLORINATED BIPHENYLS, Method: PREINCUBATION): active; positive
- mutagenic call (Test System: AMES SALMONELLA TYPHIMURIUM, Strain/Indicator: TA1537, Metabolic Activation: MOUSE, LIVER, S-9, POLYCHLORINATED BIPHENYLS, Method: STANDARD PLATE): active; positive
- mutagenic call (Test System: AMES SALMONELLA TYPHIMURIUM, Strain/Indicator: TA1537, Metabolic Activation: NONE, Method: STANDARD PLATE): active; positive
- mutagenic call (Test System: AMES SALMONELLA TYPHIMURIUM, Strain/Indicator: TA1538, Metabolic Activation: MOUSE, LIVER, S-9, POLYCHLORINATED BIPHENYLS, Method: PREINCUBATION): active; positive
- mutagenic call (Test System: AMES SALMONELLA TYPHIMURIUM, Strain/Indicator: TA1538, Metabolic Activation: MOUSE, LIVER, S-9, POLYCHLORINATED BIPHENYLS, Method: STANDARD PLATE): active; positive
- mutagenic call (Test System: AMES SALMONELLA TYPHIMURIUM, Strain/Indicator: TA1538, Metabolic Activation: NONE, Method: STANDARD PLATE): inactive; negative
